Here are results for eight molecules from patent publication US20240383886A1, “Protein Tyrosine Phosphatase Degraders and Methods of Use Thereof” (CALICO LIFE SCIENCES LLC, priority 2019, published 2024).

The term DC50 denotes the concentration at which degradation of the target reaches its halfway point. A high value points to degradation only at high concentration.

The test system of assay [1] is PTPN2. Description: HiBiT-Degradation B16F10.4 PTPN2. It is filed as cell-based. Particulars: B16F10.4 cells, 24.0 hours. On the technique in general: With HiBiT, luminescence reflects the tagged protein that the partner subunit can reach.
Assay [2] has as its target T1, PTPN2 (Homo sapiens, UniProt P17706).
T1 construct: expressed in transfected cells; host or cells: 293T (293T.109 HiBiT-PTPN2 line; parental 293T WT from ATCC)
T1 sequence (P17706 1-415): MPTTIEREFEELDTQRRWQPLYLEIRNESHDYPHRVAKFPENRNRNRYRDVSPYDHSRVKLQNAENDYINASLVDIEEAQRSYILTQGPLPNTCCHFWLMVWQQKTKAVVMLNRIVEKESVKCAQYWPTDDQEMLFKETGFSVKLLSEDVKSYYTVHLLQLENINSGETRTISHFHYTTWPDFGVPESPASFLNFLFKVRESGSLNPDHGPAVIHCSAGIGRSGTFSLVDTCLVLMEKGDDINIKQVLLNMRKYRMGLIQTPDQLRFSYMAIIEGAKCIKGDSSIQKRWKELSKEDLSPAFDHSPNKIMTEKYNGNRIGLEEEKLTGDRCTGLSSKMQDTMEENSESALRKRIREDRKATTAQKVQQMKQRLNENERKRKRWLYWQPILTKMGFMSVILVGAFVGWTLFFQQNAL
As to the kind of experiment: HiBiT-Degradation 293T.109 PTPN2 (Nano-Glo HiBiT Lytic Assay). It is filed as cell-based. The settings on record: 293T.109 (HiBiT-PTPN2) cells, 24.0 hours. The method, boiled down: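 Luminescence from a lytic HiBiT read gave PTPN2 levels after 24 h compound exposure at 37° C. Compounds were tested at 11 half-log points from a 10 μM top concentration, in duplicate. The cells were 293T engineered with an N-terminal HiBiT–PTPN2 fusion, plated at 5000 per well, with untreated wells as negative control and no-reagent wells as positive control.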

`O=C1CCC(N2Cc3c(OCc4cnn(CCC(=O)Nc5ccc6c(F)c(N7CC(=O)NS7(=O)=O)c(O)cc6c5)c4)cccc3C2=O)C(=O)N1` (stereo not shown) [Example 21, N-(6-(1,1-dioxido-4-oxo-1,2,5-thiadiazolidin-2-yl)-5-fluoro-7-hydroxynaphthalen-2-yl)-3-(4-(((2-(2,6-dioxopiperidin-3-yl)-1-oxoisoindolin-4-yl)oxy)methyl)-1H-pyrazol-1-yl)propanamide]: the DC50 in the assay with PTPN2 [1] was in the range of 0.2 to 1 µM; on PTPN2 [2], 0.05 to 0.2 µM.

On to `Cn1c(=O)n(C2CCC(=O)NC2=O)c2ccc(C3CN(CC(=O)NCCOc4ccc5cc(O)c(N6CC(=O)NS6(=O)=O)c(F)c5c4)C3)cc21` (stereo not shown) [Example 161, 2-[3-[1-(2,6-dioxo-3-piperidyl)-3-methyl-2-oxo-benzimidazol-5-yl]azetidin-1-yl]-N-[2-[[8-fluoro-6-hydroxy-7-(1,1,4-trioxo-1,2,5-thiadiazolidin-2-yl)-2-naphthyl]oxy]ethyl]acetamide], for which the DC50 in the assay on PTPN2 [1] and at PTPN2 [2] was 0.2 to 1 µM in each case.

Consider `O=C1CCC(N2C(=O)c3cccc(NCC(=O)N4CCC(C(=O)NCCOc5ccc6cc(O)c(N7CC(=O)NS7(=O)=O)c(F)c6c5)CC4)c3C2=O)C(=O)N1` (stereo not shown) [Example 1, N-(2-((7-(1,1-dioxido-4-oxo-1,2,5-thiadiazolidin-2-yl)-8-fluoro-6-hydroxynaphthalen-2-yl)oxy)ethyl)-1-((2-(2,6-dioxopiperidin-3-yl)-1,3-dioxoisoindolin-4-yl)glycyl)piperidine-4-carboxamide], for which the results for the DC50 in the assay on PTPN2 [1] and at PTPN2 [2] were not below 1 µM and 0.2 to 1 µM, respectively.

As to `Cn1c(=O)n(C2CCC(=O)NC2=O)c2ccc(C3CCN(CCCC(=O)Nc4ccc5c(F)c(N6CC(=O)NS6(=O)=O)c(O)cc5c4)CC3)cc21` (stereo not shown) [Example 70], the half-maximal degradation concentration (DC50) in the assay on PTPN2 [1] and on PTPN2 [2] was not below 1 µM throughout.

As to `Cn1c(=O)n(C2CCC(=O)NC2=O)c2ccc(C3CCN(Cc4nnc(-c5ccc6c(F)c(N7CC(=O)NS7(=O)=O)c(O)cc6c5)o4)CC3)cc21` (stereo not shown) [Example 146, 3-[5-[1-[[5-[5-fluoro-7-hydroxy-6-(1,1,4-trioxo-1,2,5-thiadiazolidin-2-yl)-2-naphthyl]-1,3,4-oxadiazol-2-yl]methyl]-4-piperidyl]-3-methyl-2-oxo-benzimidazol-1-yl]piperidine-2,6-dione], the DC50 lay in the range of 0.2 to 1 µM in the assay with PTPN2 [1] and 0.01 to 0.05 µM on PTPN2 [2].

For the molecule `Cn1c(=O)n(C2CCC(=O)NC2=O)c2ccc(C3CCN(C(=O)c4ccc5c(F)c(N6CC(=O)NS6(=O)=O)c(O)cc5c4)CC3)cc21` (stereo not shown) [Example 71], the DC50 with PTPN2 [1] and at PTPN2 [2] was not below 1 µM each time.

Consider `O=C1CCC(Nc2ccc(C3CCN(CC(=O)Nc4ccc5c(F)c(N6CC(=O)NS6(=O)=O)c(O)cc5c4)CC3)cc2Oc2ccccc2)C(=O)N1` (stereo not shown) [Example 101, 2-[4-[4-[(2,6-dioxo-3-piperidyl)amino]-3-phenoxy-phenyl]-1-piperidyl]-N-[5-fluoro-7-hydroxy-6-(1,1,4-trioxo-1,2,5-thiadiazolidin-2-yl)-2-naphthyl]acetamide], for which the results for the DC50 with PTPN2 [1] and at PTPN2 [2] were not below 1 µM and 0.2 to 1 µM, respectively.

With `O=C(CCCCCn1cc(CNc2cccc3c2C(=O)N(C2CCC(=O)NC2=O)C3=O)nn1)NCCOc1ccc2cc(O)c(N3CC(=O)NS3(=O)=O)c(F)c2c1` (stereo not shown) [Example 47], the DC50 in the assay with PTPN2 [1] and at PTPN2 [2] was not below 1 µM in each case.
